Source: PMC5131364, “Pharmacologic modulation of RORγt translates to efficacy in preclinical and translational models of psoriasis and inflammatory arthritis” (Scientific Reports, 2016)

Legend:
[1] = tested on: human CD4+ CD45RO+ CCR6+ T cells; test: Human memory CCR6+ T cells in vitro activation; format: cell-based
From the text: The following antibodies (anti-mouse or anti-human) were purchased from BD Biosciences (San Diego, CA) or eBioscience (San Diego, CA): anti-CD3-FITC (mouse 17A2 and human SK7), anti-CD4-allophycocyanin (APC), anti-CD4-PerCp, anti-CD4-FITC, anti-CD4-PE (mouse GK1.5 and human SK3), anti-CD44-PerCp (mouse IM7), anti-γδ TCR-FITC, anti-γδ TCR-PE (mouse GL3 and human B1), anti-CD62L-FITC (mouse MEL-14 and human SK11), anti-CD45RO-APC (human UCHL1), anti-CCR6-PE (human 11A9), anti-CD45-PerCp (mouse 30-F11). Human or mouse anti-IFNγ (mouse XMG1.2 and human 4S.B3), anti-TNFα (mouse MP6-XT22 and human MAB11), anti-IL-17A (mouse eBio17B7 and human eBio64DEC17), anti-IL-22 (mouse 1H8PWSR and human 22URTI), and anti-Foxp3 (mouse FJK-16s and human 36A/E7), all PE or APC conjugated, were purchased from eBioscience (San Diego, CA). Human and mouse APC conjugated CD1d tetramers pre-loaded with alpha-GalCer and negative controls were obtained from ProImmune. For intracellular staining cells were stimulated for 4 hours at 37 °C with PMA and ionomycin (0.5 μg/ml each) in the presence of brefeldin A and monensin or with leukocyte activation cocktail (BD Bioscience, San Diego, CA). Cells were stained with fluorescence-labeled antibodies for surface marker, then fixed/permeabilized (eBioscience) and stained with antibodies for intracellular cytokines. For Foxp3 staining cells were fixed/permeabilized using transcription factor buffer set (eBioscience). The data were acquired on a FACS Calibur (BD Bioscience) and analyzed using FlowJo software (Tree Star, San Carlos, CA).
Human blood samples from healthy donors were provided by the Scripps Research Institute, La Jolla following Institutional Review Board approved protocol. Total CD4^+ T cells were isolated from the peripheral blood mononuclear cells (PBMCs) using a CD4^+ T cell Isolation Kit II (Miltenyl Biotec, Auburn, CA), following the manufacturer’s instructions. CCR6^+ cells were isolated from CD4^+ T cells using phycoerythrin (PE) conjugated anti-CCR6 antibody followed by anti-PE microbeads. Isolated CCR6^+ T cells were resuspended in culture medium and added to a 96-well plate which was pre-coated with 1 μg/ml anti-CD3 (BD Bioscience) at 1 × 10^5 cells per well. […] Cells were cultured at 37 °C and 5% CO2 for 6 days. Supernatants were assayed for accumulated cytokines using MSD multi-spot assay (Meso Scale Discovery, Rockville, MD) or R&D ELISA kit, and cells were used for intracellular staining.

PBMC from healthy donors = test: IL-17A production from PBMC of healthy donors; format: cell-based; conditions: Homo sapiens, typically observed
From the text: (§1) Frozen PBMCs of healthy and rheumatoid arthritis patients were obtained from SeraCare Life Sciences (Gaithersburg, MD). […] 3 days later, supernatants were collected and analyzed by MSD multi-spot assay or ELISA for IL-17A, IL-22 and IL-13 production.

[2] = tested on: CLA+ memory T cells / autologous epidermal cells from guttate psoriasis patients; test: Co-culture of human psoriatic CLA+ memory T cells with epidermal cells, streptococcal extract; format: cell-based
From the text: The study protocol was reviewed and subsequently approved by the Medical Ethics Committee of the Hospitals where the biopsies and blood were procured. All psoriasis donors in this study were required to be without disease-specific systemic therapy for at least 4 weeks or topical treatment for at least 2 weeks before the clinical samples were obtained. Circulating CLA^+/CLA^− CD45RO^+ CD3^+ cells and lesional epidermal cells were obtained from the same guttate psoriasis patient following the procedure described previously. In brief, memory T cell populations were isolated and enriched from peripheral blood lymphocytes by immunomagnetic separations. Epidermal cell suspensions were obtained from lesional biopsies by a dispase/trypsin treatment. The culture system was performed by seeding 50,000 circulating CLA^+ or CLA^− memory T cells with 30,000 autologous epidermal cells in a 96-flat bottom microwell plate (Nunc, Roskilde, Denmark) with culture medium (RPMI with 10% fetal calf serum). […] Cytokines in supernatants were quantified by multiplex fluorescent bead-based immunoassay, Diaclone DIAplex kit (Gen-Probe, Besançon, France), and data were collected with a F500 Flow Cytometer (Beckman Coulter, Fullerton, CA).

PBMC from RA patients = test: IL-17A/IL-22 production from PBMC of rheumatoid arthritis patients; format: cell-based, human; conditions: anti-CD3/anti-CD28 plus IL-1β and IL-23, 3 days
From the text: as §1

[3] = tested on: collagen-induced arthritis in DBA/1Lacj mice; test: Mouse collagen-induced arthritis model; format: in vivo; conditions: 60 mg/kg BID oral
Protocol: Mice (female DBA/1Lacj mice, Jackson Laboratories; 8–10 weeks) were housed with 12 hours light-dark cycle with food and water provided ad libitum. Following acclimation, mice were immunized with an emulsion containing equal amounts of Chick Type II Collagen (Chondrex, Redmond, WA) and Complete-Freund’s adjuvant (CFA, Chondrex), 100 μg each per mouse, on day 0 at the base of the tail and administered a second immunization boost on day 21. On day 21, animals were examined for clinical arthritis scores and randomized into treatment groups. […] The clinical arthritis scores were evaluated from days 21 to 34. Animals were euthanized under CO2 on day 35. Both hind-paws from each animal were collected and fixed in 10% neutral buffered formalin for histopathology. Both front paws were digested after removing the skin in 0.125% (v/v) Dispase II (Roche, Indianapolis, IN), 0.2% collagenase II (Roche, Indianapolis, IN), and 0.2% collagenase IV (Sigma-Aldrich, St. Louis, MO) in HBSS for 75 min at 37 °C and passed through a cell strainer. Cells were then stimulated and analyzed by flow cytometry for cytokine-producing cells.
Tissues were fixed in 10% formalin, sectioned, and stained with H&E for histology at Seventh Wave Laboratories, LLC, (Chesterfield, MO).

[4] = 1 μM, SE-stimulated CLA+/epidermal cell co-culture, not statistically significant

COc1nc2ccc([C@@](O)(c3ccc(C)nc3C)c3cnnn3C)cc2c(Cl)c1Cc1ccc(C(F)(F)F)cc1 [JNJ-54271074]
IFNγ production ([1]; 1 μM): slightly increasing | IL-22, TNFα and GM-CSF production ([1]; 1 μM): trend of decreasing | increase of IL-10 production over the control ([1]; 1 μM): 49% | number of IL-17A-producing cells (single- and double-positive) ([1]; 1 μM, flow cytometry): significantly decreased | inhibition at 1 µM ([1]; Homo sapiens, T-cell, vs DMSO control, non-polarizing activation, read-out: inhibition of IL-17A production): 77% | IC50 (PBMC from healthy donors): 3 ± 0.9 nM | TNFα and IL-8 production ([2]; 1 μM, SE-stimulated CLA+/epidermal cell co-culture): no effect | increase of IFNγ production [2, 4]: 64% | reduction of IL-6 [2, 4]: 32% | reduction of IL-17F production [2, 4]: 40% | decrease of IL-17A production ([2]; 1 μM, SE-stimulated CLA+/epidermal cell co-culture, vs DMSO, significant): 78% | IL-17A production in human cell co-culture model ([2]; discussion, in words): significant inhibition | IC50 (PBMC from RA patients; Homo sapiens, PBMC, 72 h, read-out: IC50, IL-17A production from PBMC from RA subjects): 5 ± 1.2 nM | efficacy, inhibition of IL-17A production (PBMC from RA patients; RA PBMC): 88% | efficacy, inhibition of IL-22 production (PBMC from RA patients; RA PBMC): 44% | reduction of AUC for disease score [3]: 79% | decrease of IL-17A-producing CD3+ cell population in paws ([3]; day 35): ~ 70% | inflammation, cartilage damage and bone destruction compared with vehicle ([3]; hind paws histology): significantly reduced | reduction of total histopathology score ([3]; hind paws, day 35): 80%
